Results as given in ChEMBL document CHEMBL5291721, “A preclinical secondary pharmacology resource illuminates target-adverse drug reaction associations of marketed drugs” (Nat Commun, 2023).
Blank lines part the entries; values can stand above or below the molecule they belong to.

Tests used:
[1] = biological target: T1, Muscarinic acetylcholine receptor M1 (Homo sapiens, UniProt P11229)
T1 sequence (P11229 whole entry): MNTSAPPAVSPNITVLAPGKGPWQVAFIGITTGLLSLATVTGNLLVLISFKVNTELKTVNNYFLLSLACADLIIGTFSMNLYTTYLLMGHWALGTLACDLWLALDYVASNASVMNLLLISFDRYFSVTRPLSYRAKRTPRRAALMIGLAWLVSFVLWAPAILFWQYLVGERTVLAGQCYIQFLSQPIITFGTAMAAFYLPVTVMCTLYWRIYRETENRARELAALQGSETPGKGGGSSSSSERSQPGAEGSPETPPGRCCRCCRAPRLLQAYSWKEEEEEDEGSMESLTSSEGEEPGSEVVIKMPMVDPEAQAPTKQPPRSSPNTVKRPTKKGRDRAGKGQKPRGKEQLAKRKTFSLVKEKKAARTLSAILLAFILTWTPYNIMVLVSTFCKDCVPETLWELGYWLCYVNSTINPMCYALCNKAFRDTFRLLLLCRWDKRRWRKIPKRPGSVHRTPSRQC

[2] = biological target: T2, Muscarinic acetylcholine receptor M4 (Homo sapiens, UniProt P08173)
T2 sequence (P08173 whole entry): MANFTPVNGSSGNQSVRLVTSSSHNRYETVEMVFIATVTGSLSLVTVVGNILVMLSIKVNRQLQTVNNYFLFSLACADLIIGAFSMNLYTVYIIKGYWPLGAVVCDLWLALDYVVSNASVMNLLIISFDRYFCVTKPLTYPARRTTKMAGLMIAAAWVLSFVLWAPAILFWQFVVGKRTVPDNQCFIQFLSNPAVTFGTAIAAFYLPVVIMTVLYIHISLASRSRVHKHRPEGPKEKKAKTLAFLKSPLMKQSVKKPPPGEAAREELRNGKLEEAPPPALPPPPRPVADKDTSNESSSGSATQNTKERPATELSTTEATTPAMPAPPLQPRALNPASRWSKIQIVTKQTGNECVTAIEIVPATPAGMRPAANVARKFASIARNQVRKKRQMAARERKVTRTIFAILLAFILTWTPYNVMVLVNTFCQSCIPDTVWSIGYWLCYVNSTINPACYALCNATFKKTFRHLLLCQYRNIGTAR

Substance-K receptor = biological target: T3, Substance-K receptor (Homo sapiens, UniProt P21452)
T3 sequence (P21452 whole entry): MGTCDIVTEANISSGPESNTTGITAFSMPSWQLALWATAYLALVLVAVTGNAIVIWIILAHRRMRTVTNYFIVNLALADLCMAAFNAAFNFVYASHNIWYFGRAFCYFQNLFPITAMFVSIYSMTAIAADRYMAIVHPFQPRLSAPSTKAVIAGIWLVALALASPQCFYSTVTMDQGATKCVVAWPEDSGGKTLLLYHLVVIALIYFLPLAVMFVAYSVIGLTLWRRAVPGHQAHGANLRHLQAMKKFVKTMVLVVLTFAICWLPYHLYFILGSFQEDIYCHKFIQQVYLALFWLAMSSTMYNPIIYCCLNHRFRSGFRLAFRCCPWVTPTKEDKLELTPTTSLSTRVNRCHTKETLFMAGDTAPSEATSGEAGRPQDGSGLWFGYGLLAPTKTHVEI

[3] = biological target: T4, Nuclear receptor subfamily 1 group I member 3 (Homo sapiens, UniProt Q14994); format: functional
T4 sequence (Q14994 whole entry): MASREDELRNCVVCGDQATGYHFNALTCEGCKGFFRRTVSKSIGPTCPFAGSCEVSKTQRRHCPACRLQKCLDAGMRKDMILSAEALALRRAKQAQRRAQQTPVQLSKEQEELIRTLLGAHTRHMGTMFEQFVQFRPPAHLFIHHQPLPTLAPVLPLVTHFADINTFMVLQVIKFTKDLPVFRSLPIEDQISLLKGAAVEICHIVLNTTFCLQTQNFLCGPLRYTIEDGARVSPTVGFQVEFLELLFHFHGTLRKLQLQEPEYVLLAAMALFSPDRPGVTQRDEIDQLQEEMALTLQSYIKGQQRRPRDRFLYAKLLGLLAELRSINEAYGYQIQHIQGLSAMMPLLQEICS

Androgen receptor [4] = biological target: T5, Androgen receptor (Rattus norvegicus, UniProt P15207)
T5 sequence (P15207 whole entry): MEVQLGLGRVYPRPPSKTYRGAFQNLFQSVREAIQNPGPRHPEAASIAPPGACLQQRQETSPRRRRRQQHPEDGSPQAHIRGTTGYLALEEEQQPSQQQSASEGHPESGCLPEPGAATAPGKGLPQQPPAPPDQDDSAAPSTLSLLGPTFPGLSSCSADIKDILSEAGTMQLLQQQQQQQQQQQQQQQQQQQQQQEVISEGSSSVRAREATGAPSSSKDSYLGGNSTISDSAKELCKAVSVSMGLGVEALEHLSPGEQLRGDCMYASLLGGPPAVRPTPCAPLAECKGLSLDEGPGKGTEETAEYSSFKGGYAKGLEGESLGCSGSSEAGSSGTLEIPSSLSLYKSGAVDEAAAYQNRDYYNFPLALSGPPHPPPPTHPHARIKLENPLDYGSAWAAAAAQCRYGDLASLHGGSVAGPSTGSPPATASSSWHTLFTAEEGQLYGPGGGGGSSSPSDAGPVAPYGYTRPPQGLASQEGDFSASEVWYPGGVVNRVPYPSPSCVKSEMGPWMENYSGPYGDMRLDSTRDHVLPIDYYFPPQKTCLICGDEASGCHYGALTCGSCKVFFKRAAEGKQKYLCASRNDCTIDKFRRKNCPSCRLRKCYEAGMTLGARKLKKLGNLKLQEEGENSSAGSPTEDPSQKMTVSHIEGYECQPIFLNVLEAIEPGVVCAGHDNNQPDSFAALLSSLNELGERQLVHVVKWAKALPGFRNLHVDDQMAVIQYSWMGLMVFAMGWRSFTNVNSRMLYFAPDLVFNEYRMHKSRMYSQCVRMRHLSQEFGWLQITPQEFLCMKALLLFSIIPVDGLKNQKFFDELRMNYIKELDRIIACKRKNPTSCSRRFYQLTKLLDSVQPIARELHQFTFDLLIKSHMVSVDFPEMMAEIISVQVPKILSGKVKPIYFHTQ

[5] = biological target: Voltage-dependent L-type calcium channel subunit alpha-1C (Homo sapiens, UniProt Q13936); format: functional, cell-based
Sequence of Voltage-dependent L-type calcium channel subunit alpha-1C (Q13936 whole entry): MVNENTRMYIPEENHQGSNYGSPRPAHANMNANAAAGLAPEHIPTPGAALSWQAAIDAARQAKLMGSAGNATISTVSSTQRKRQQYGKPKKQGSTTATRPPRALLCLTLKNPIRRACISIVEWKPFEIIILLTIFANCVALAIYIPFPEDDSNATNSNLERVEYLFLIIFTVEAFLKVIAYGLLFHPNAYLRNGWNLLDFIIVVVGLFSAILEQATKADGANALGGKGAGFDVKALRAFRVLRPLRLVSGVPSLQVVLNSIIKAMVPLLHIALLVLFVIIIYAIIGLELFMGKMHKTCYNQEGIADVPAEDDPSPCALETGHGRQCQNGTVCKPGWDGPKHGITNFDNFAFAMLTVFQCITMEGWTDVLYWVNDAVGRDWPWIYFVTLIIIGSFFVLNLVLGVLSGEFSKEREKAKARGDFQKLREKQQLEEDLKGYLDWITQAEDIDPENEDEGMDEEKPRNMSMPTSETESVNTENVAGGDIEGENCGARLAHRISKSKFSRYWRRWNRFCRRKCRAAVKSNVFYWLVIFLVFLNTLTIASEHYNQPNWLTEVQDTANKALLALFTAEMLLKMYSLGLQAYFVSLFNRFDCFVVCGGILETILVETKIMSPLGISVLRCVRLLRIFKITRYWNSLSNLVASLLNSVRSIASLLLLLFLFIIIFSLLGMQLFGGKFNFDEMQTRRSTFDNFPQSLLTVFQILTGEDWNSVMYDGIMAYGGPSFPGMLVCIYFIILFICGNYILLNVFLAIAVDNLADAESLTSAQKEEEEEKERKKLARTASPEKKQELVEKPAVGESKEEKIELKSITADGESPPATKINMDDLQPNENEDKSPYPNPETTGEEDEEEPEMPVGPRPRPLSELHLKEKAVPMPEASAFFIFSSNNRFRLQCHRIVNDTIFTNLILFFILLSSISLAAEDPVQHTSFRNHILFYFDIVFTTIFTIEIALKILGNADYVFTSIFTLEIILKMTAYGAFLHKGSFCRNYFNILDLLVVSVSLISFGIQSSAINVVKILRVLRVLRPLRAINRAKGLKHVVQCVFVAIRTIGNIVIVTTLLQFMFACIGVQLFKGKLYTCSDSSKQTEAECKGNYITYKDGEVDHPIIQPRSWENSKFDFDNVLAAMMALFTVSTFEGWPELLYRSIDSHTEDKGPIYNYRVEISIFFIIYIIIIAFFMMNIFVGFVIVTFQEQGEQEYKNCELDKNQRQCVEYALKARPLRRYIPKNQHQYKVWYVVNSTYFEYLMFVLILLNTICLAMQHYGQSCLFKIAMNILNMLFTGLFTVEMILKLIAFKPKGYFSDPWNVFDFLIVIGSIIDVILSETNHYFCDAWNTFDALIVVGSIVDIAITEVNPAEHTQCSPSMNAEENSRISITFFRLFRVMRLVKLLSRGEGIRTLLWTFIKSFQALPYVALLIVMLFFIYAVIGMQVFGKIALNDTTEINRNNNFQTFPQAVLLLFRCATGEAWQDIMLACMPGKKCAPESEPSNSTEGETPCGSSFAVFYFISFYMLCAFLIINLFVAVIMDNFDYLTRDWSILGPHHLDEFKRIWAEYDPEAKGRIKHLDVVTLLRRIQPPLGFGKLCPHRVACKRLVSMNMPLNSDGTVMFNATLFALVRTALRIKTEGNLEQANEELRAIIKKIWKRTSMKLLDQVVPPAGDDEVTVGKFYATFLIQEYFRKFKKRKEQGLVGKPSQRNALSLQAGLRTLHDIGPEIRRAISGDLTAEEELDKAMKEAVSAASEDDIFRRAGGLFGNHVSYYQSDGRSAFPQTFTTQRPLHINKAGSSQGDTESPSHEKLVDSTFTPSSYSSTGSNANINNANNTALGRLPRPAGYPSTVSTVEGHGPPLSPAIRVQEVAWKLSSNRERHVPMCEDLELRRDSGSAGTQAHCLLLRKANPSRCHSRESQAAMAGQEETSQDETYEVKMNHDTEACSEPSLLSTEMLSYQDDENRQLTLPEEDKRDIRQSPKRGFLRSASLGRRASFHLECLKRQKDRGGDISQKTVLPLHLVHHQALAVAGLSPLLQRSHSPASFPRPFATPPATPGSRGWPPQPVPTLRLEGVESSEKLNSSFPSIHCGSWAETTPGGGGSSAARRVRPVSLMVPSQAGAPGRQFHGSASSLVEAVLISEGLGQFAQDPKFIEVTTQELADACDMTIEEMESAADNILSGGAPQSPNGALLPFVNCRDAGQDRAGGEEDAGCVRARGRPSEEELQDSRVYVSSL

Androgen receptor [6] = biological target: T5, Androgen receptor; format: functional
Androgen receptor [7] = biological target: T5, Androgen receptor; format: functional; remark: listed apart in the source
Note: assay procedure not described here.

SMILES: CN[C@@H]1[C@H](O[C@H]2[C@H](O[C@H]3[C@H](O)[C@@H](O)[C@H](NC(=N)N)[C@@H](O)[C@@H]3NC(=N)N)O[C@@H](C)[C@]2(O)CO)O[C@@H](CO)[C@H](O)[C@H]1O [DIHYDROSTREPTOMYCIN]
AC50 [1]: > 30 µM

SMILES: O=C(O)Cc1ccccc1Nc1c(Cl)cccc1Cl [DICLOFENAC]
AC50 [2]: > 10 µM
AC50 (Substance-K receptor): > 10 µM
AC50 [3]: 23 µM
AC50 (Androgen receptor [4]): > 30 µM

SMILES: O=C1Cc2cc(CCN3CCN(c4nsc5ccccc45)CC3)c(Cl)cc2N1 [ZIPRASIDONE]
AC50 [5]: > 50 µM

SMILES: COc1ccccc1OC1(C)OC(=O)c2ccccc2O1 (stereo not drawn) [GUAIMESAL]
AC50 (Androgen receptor [6]): > 30 µM
AC50 (Androgen receptor [7]): > 30 µM

SMILES: CCOc1cc([C@@H](CS(C)(=O)=O)N2C(=O)c3cccc(NC(C)=O)c3C2=O)ccc1OC
AC50 [5]: > 50 µM
AC50 (Androgen receptor [6]): > 30 µM

SMILES: C#C[C@]1(O)C=C[C@H]2[C@@H]3CCC4=CC(=O)CC[C@@H]4[C@H]3CC[C@@]21CC [GESTODENE]
AC50 [1]: > 30 µM

SMILES: Cc1ccc(C)c(OCCCC(C)(C)C(=O)O)c1 [GEMFIBROZIL]
AC50 (Androgen receptor [4]): > 30 µM

SMILES: CC(C)NC(=N)NC(=N)Nc1ccc(Cl)c(Cl)c1 [CHLORPROGUANIL]
AC50 [1]: > 30 µM

More lines, now with the values ahead:

AC50 [3]: 18 µM
SMILES: CN(CCOc1ccc(CC2SC(=O)NC2=O)cc1)c1ccccn1 (stereo not drawn) [ROSIGLITAZONE]

AC50 (Androgen receptor [6]): > 30 µM
AC50 (Androgen receptor [7]): > 30 µM
SMILES: CC(C(=O)O)c1ccc2oc(-c3ccc(Cl)cc3)nc2c1 (stereo not drawn) [BENOXAPROFEN]

AC50 (Androgen receptor [4]): > 10 µM
SMILES: CNC(=C[N+](=O)[O-])NCCSCc1csc(CN(C)C)n1 [NIZATIDINE]

AC50 [5]: > 30 µM
SMILES: CCCCCCCN(CC)CCCC(O)c1ccc(NS(C)(=O)=O)cc1 (stereo not drawn) [IBUTILIDE]

AC50 (Androgen receptor [6]): > 30 µM
AC50 (Androgen receptor [7]): 27 µM
SMILES: CCC(=O)O[C@]1(C(=O)CCl)[C@@H](C)C[C@H]2[C@@H]3CCC4=CC(=O)C=C[C@]4(C)[C@@]3(F)[C@@H](O)C[C@@]21C [CLOBETASOL PROPIONATE]

AC50 [2]: > 10 µM
AC50 (Androgen receptor [6]): > 30 µM
AC50 (Substance-K receptor): > 10 µM
AC50 (Androgen receptor [4]): > 30 µM
SMILES: CCOc1nc2cccc(C(=O)O)c2n1Cc1ccc(-c2ccccc2-c2nnn[nH]2)cc1

AC50 [2]: > 10 µM
AC50 (Substance-K receptor): > 10 µM
SMILES: Cc1nc(Nc2ncc(C(=O)Nc3c(C)cccc3Cl)s2)cc(N2CCN(CCO)CC2)n1 [DASATINIB]

AC50 [3]: 4 µM
SMILES: COc1cc(C(=O)NS(=O)(=O)c2ccccc2C)ccc1Cc1cn(C)c2ccc(NC(=O)OC3CCCC3)cc12 [ZAFIRLUKAST]

AC50 (Androgen receptor [4]): > 30 µM
SMILES: CC=CC1=C(C(=O)O)N2C(=O)[C@@H](NC(=O)[C@H](N)c3ccc(O)cc3)[C@H]2SC1 [CEFPROZIL]
